Reference: patent publication US9145414B2, “1,2,4-triazine-6-carboxamide derivative” (TAIHO PHARMACEUTICAL CO., LTD., priority 2011, dated 2015)
Read-outs that look alike come from different tables or passages of the source.

How the values were obtained:
human Syk protein = human Syk protein (Homo sapiens (Human), UniProt P43405); assay: Syk kinase inhibition test; type: biochemical; conditions: Table 95; read-out: SYK inhibitory activity IC50
Experimental: Finally, phosphorylated peptides and non-phosphorylated peptides were separated therebetween using LabChip™ 3000 system (Caliper Life Sciences, Inc., excitation wavelength: 488 nm, detection wavelength: 530 nm). Their respective amounts were measured, and the rate of phosphorylation reaction was then determined from the ratio between the amounts. The concentration at which the compound can inhibit 50% phosphorylation reaction is defined as an IC50 value (μM).
Also, known 1,2,4-triazine-6-carboxamide derivatives A, B, and C (WO2000/075113 (A: compound No. 121 and B: compound No. 154) and WO2000/076980 (C: compound No. 39)) were synthesized as control compounds. Their IC50 values (μM) were calculated in the same way as above and then compared with that of the compound of the present invention.

[1] = tested on: SU-DHL-6 cells (diffuse large-cell lymphoma cell line); assay: Cell growth inhibition test; type: cell-based; conditions: SU-DHL-6 cells, 3 days culture, Table 96, read-out: Cell growth inhibition IC50
Experimental: The compound of the present invention was serially diluted with dimethyl sulfoxide and then added to an RPMI1640 medium containing 10% FBS. Each resulting solution was added at a concentration of 100 μl/well to the preceding SU-DHL-6 cell culture plate (final concentration of the compound: 10, 3, 1, 0.3, 0.1, 0.03, 0.01, and 0.003 μM). The cells were cultured at 37° C. for 3 days in an incubator containing 5% CO2. The cells thus cultured were left at room temperature for 30 minutes and then centrifuged at 1500 rpm for 3 minutes using a centrifuge (Hitachi Koki Co., Ltd., Himac CF7D2). A 100 μl aliquot of the supernatant was removed from each well to allow 100 μl of the cell culture solution to remain therein. This 100 μl of the remaining cell culture solution was supplemented with an equal amount of CellTiter-Glo Luminescent Cell Viability Assay (Promega KK, Cat#: G7573), and the mixture was then shaken for 1 minute using a plate mixer. The reaction solution was left in the dark for 10 minutes. Then, luminescence intensity derived from live cells of each well was measured using a microplate reader (PerkinElmer Inc., ARVOsx). […] Likewise, the IC50 values (μM) of the control compounds were also calculated and then compared with that of the compound of the present invention. Rate of cell growth inhibition(%)=(C−T)/C×100 T: luminescence intensity (count per second) of a well supplemented with the test compound C: luminescence intensity (count per second) of a well non-supplemented with the test compound

| IC50 (human Syk protein) | IC50 ([1]; Homo sapiens, 72 h) | IC50 [1] | SMILES |
| --- | --- | --- | --- |
| 0.29 nM | 128 nM |  | NC(=O)c1nnc(N[C@@H]2CCCC[C@@H]2N)nc1Nc1csc2ccccc12 [Example 212] |
| 0.33 nM | 75 nM |  | Cc1cc(Nc2nc(N[C@@H]3CCCC[C@@H]3N)nnc2C(N)=O)cc2cccnc12 [Example 259, 3-(((1R,2S)-2-aminocyclohexyl)amino)-5-((8-methylquinolin-6-yl)amino)-1,2,4-triazine-6-carboxamide] |
| 0.41 nM | 181 nM |  | NC(=O)c1nnc(N[C@@H]2CCOC[C@@H]2N)nc1Nc1cccc2c1ccn2C1CCC1 [Example 277] |
| 0.31 nM |  |  | CCn1cc2ccc(Nc3nc(N[C@@H]4CCCCC[C@@H]4N)nnc3C(N)=O)cc2n1 [Example 316, 3-(((1R,2S)-2-aminocycloheptyl)amino)-5-((2-ethyl-2H-indazol-6-yl)amino)-1,2,4-triazine-6-carboxamide] |
| 0.59 nM |  |  | CCn1ncc2c(C)cc(Nc3nc(N[C@@H]4CCOC[C@@H]4N)nnc3C(N)=O)cc21 [Example 310] |
| 0.58 nM | 178 nM |  | NC(=O)c1nnc(N[C@@H]2CCOC[C@@H]2N)nc1Nc1ccc2cnn(C(F)F)c2c1 [Example 170] |
| 0.35 nM | 158 nM |  | CC[C@H](N)CNc1nnc(C(N)=O)c(Nc2cccc3sccc23)n1 [Example 245] |
| 0.48 nM |  |  | CCOC[C@H](N)[C@@H](C)Nc1nnc(C(N)=O)c(Nc2cc(C)c3ncccc3c2)n1 [Example 282] |
| 0.33 nM |  |  | NC(=O)c1nnc(N[C@@H]2CCCC[C@@H]2N)nc1Nc1cccc2nn(C(F)F)cc12 [Example 209] |
| 0.4 nM |  |  | N#Cc1cc(Nc2nc(N[C@@H]3CCCC[C@@H]3N)nnc2C(N)=O)c2ccsc2c1 [Example 208] |
| 0.55 nM |  |  | CCn1ncc2cc(Nc3nc(N[C@H](C)[C@@H](N)COC)nnc3C(N)=O)cc(C)c21 [Example 311, 3-(((2R,3R)-3-amino-4-methoxybutan-2-yl)amino)-5-((1-ethyl-7-methyl-1H-indazol-5-yl)amino)-1,2,4-triazine-6-carboxamide] |
| 0.34 nM |  |  | COC[C@H](N)[C@@H](C)Nc1nnc(C(N)=O)c(Nc2cc(C)c3c(cnn3C(C)C)c2)n1 [Example 284] |

Continued, compound first:

| SMILES | IC50 (human Syk protein) | IC50 ([1]; Homo sapiens, 72 h) | IC50 [1] |
| --- | --- | --- | --- |
| CC(C)(C)n1cc2cc(Nc3nc(N[C@@H]4CCOC[C@@H]4N)nnc3C(N)=O)cc(Cl)c2n1 [Example 100, 3-(((3R,4R)-3-aminotetrahydro-2H-pyran-4-yl)amino)-5-((2-(tert-butyl)-7-chloro-2H-indazol-5-yl)amino)-1,2,4-triazine-6-carboxamide] | 0.41 nM |  |  |
| NC(=O)c1nnc(N[C@@H]2CCCC[C@@H]2N)nc1Nc1cccc2c1ccn2C(F)F [Example 26, 3-((1R,2S)-2-aminocyclohexylamino)-5-(1-(difluoromethyl)-1H-indol-4-ylamino)-1,2,4-triazine-6-carboxamide] | 0.22 nM | 41 nM |  |
| NC(=O)c1nnc(N[C@@H]2CCCC[C@@H]2N)nc1Nc1cc(-c2ccccn2)cs1 [Example 77, 3-(((1R,2S)-2-aminocyclohexyl)amino)-5-((4-(pyridin-2-yl)thiophen-2-yl)amino)-1,2,4-triazine-6-carboxamide] | 0.42 nM | 82 nM |  |
| Cc1cccc(Nc2cc(NCCN(C)C)ccc2C(N)=O)c1 [C, reference compound] | 620 nM |  | > 10000 nM |
| CCn1ncc2c(Nc3nc(N[C@@H]4CCCC[C@@H]4N)nnc3C(N)=O)cccc21 [Example 107, 3-(((1R,2S)-2-aminocyclohexyl)amino)-5-((1-ethyl-1H-indazol-4-yl)amino)-1,2,4-triazine-6-carboxamide] | 0.61 nM |  |  |
| CC(C)(C)n1cc2cc(Nc3nc(N[C@@H]4CCCC[C@@H]4N)nnc3C(N)=O)cc(-n3cccn3)c2n1 [Example 66, 3-(((1R,2S)-2-aminocyclohexyl)amino)-5-((2-(tert-butyl)-7-(1H-pyrazol-1-yl)-2H-indazol-5-yl)amino)-1,2,4-triazine-6-carboxamide] | 0.61 nM |  |  |
| CCn1nc(C)c2cc(Nc3nc(N[C@@H]4CCCC[C@@H]4N)nnc3C(N)=O)ccc21 [Example 56, 3-((1R,2S)-2-aminocyclohexylamino)-5-(1-ethyl-3-methyl-1H-indazol-5-ylamino)-1,2,4-triazine-6-carboxamide] | 0.5 nM |  |  |
| [2H]C([2H])([2H])C([2H])([2H])n1ncc2cc(Nc3nc(N[C@@H]4CCCC[C@@H]4N)nnc3C(N)=O)ccc21 [Example 5, 3-((1R,2S)-2-aminocyclohexylamino)-5-(1-(ethyl-d5)-1H-indazol-5-ylamino)-1,2,4-triazine-6-carboxamide] | 0.52 nM |  |  |
| Cc1cc(Nc2nc(N[C@@H]3CCCC[C@@H]3N)nnc2C(N)=O)c2ccn([C@H]3CC[C@H](O)CC3)c2c1 [Example 78] | 0.53 nM | 85 nM |  |
| NC(=O)c1nnc(N[C@@H]2CCCC[C@@H]2N)nc1Nc1cccc2sccc12 [Example 2, 3-((1R,2S)-2-aminocyclohexylamino)-5-(benzo[b]thiophen-4-ylamino)-1,2,4-triazine-6-carboxamide] | 0.46 nM |  |  |
| NC(=O)c1nnc(N[C@@H]2CCCC[C@@H]2N)nc1Nc1ccc2nn(C3CCC3)cc2c1 [Example 11, 3-((1R,2S)-2-aminocyclohexylamino)-5-(2-cyclobutyl-2H-indazol-5-ylamino)-1,2,4-triazine-6-carboxamide] | 0.47 nM |  |  |
| NC(=O)c1nnc(N[C@@H]2CCCC[C@@H]2N)nc1Nc1ccc2ncccc2c1 [Example 1, 3-((1R,2S)-2-aminocyclohexylamino)-5-(quinolin-6-ylamino)-1,2,4-triazine-6-carboxamide] | 0.4 nM |  |  |
| Cc1cc2c(Nc3nc(N[C@@H]4CCCC[C@@H]4N)nnc3C(N)=O)cccc2n1C1CC1 [Example 33, 3-((1R,2S)-2-aminocyclohexylamino)-5-(1-cyclopropyl-2-methyl-H-indol-4-ylamino)-1,2,4-triazine-6-carboxamide] | 0.71 nM |  |  |
| Cn1cc(-c2cc(Nc3nc(N[C@@H]4CCCC[C@@H]4N)nnc3C(N)=O)c3cnn(C)c3c2)cn1 [Example 13, 3-((1R,2S)-2-aminocyclohexylamino)-5-(1-methyl-6-(1-methyl-1H-pyrazol-4-yl)-1H-indazol-4-ylamino)-1,2,4-triazine-6-carboxamide] | 0.49 nM |  |  |
| NC(=O)c1nnc(N[C@@H]2CCCC[C@@H]2N)nc1Nc1cncc(C2CC2)c1 [Example 16, 3-((1R,2S)-2-aminocyclohexylamino)-5-(5-cyclopropylpyridin-3-ylamino)-1,2,4-triazine-6-carboxamide] | 0.94 nM |  |  |
| NC(=O)c1nnc(N[C@@H]2CCCC[C@@H]2N)nc1Nc1cc(-c2ncccn2)cs1 [Example 76, 3-(((1R,2S)-2-aminocyclohexyl)amino)-5-((4-(pyrimidin-2-yl)thiophen-2-yl)amino)-1,2,4-triazine-6-carboxamide] | 0.55 nM |  |  |
| Cn1ccc(-n2ccc3c(Nc4nc(NCC5(N)CCC5)nnc4C(N)=O)cccc32)n1 [Example 106, 3-(((1-aminocyclobutyl)methyl)amino)-5-((1-(1-methyl-1H-pyrazol-3-yl)-1H-indol-4-yl)amino)-1,2,4-triazine-6-carboxamide] | 0.85 nM |  |  |
| CCn1nc(C)c2ccc(Nc3nc(N[C@@H]4CCCC[C@@H]4N)nnc3C(N)=O)cc21 [Example 50, 3-((1R,2S)-2-aminocyclohexylamino)-5-(1-ethyl-3-methyl-1H-indazol-6-ylamino)-1,2,4-triazine-6-carboxamide] | 0.42 nM |  |  |
| CCn1ccc2c(Nc3nc(N[C@@H]4CCCC[C@@H]4N)nnc3C(N)=O)cccc21 [Example 17, 3-((1R,2S)-2-aminocyclohexylamino)-5-(1-ethyl-1H-indol-4-ylamino)-1,2,4-triazine-6-carboxamide] |  | 76 nM |  |
| COc1ccc2sc(Nc3nc(N[C@@H]4CCCC[C@@H]4N)nnc3C(N)=O)c(C)c2c1 [Example 48, 3-((1R,2S)-2-aminocyclohexylamino)-5-(5-methoxy-3-methylbenzo[b]thiophen-2-ylamino)-1,2,4-triazine-6-carboxamide] | 0.27 nM |  |  |
| Cc1cc(Nc2nc(N[C@@H]3CCOC[C@@H]3N)nnc2C(N)=O)cc2cn(C(C)(C)CO)nc12 [Example 99, 3-(((3R,4R)-3-aminotetrahydro-2H-pyran-4-yl)amino)-5-((2-(1-hydroxy-2-methylpropan-2-yl)-7-methyl-2H-indazol-5-yl)amino)-1,2,4-triazine-6-carboxamide] | 0.63 nM |  |  |
| Cc1cc(Nc2nc(N[C@@H]3CCCC[C@@H]3N)nnc2C(N)=O)cc2cn(C(F)F)nc12 [Example 62, 3-(((1R,2S)-2-aminocyclohexyl)amino)-5-((2-(difluoromethyl)-7-methyl-2H-indazol-5-yl)amino)-1,2,4-triazine-6-carboxamide] | 0.37 nM |  |  |
